# From patent US20240024317A1, “CANCER TREATMENT USING BOSENTAN IN COMBINATION WITH A CHECKPOINT INHIBITOR” (Materia Therapeutics Inc., priority 2020, published 2024)
# Experiments:
# Assay type in all cases: in vivo, mice
# [1] = system: 4T1 tumors; test: Whole tumor RT-PCR mRNA expression
# [2] = system: E0771 tumors; test: Primary tumor growth, bosentan plus ICB cocktail, neo-adjuvant setting; conditions: 1 mg/kg bosentan combined with ICB cocktail (10 mg/kg anti-PD-1, 5 mg/kg anti-CTLA-4); n=10
# Method: (§1) To determine if a stiffness-reducing and hypoxia-reducing (blood flow-increasing) regimen of bosentan could enhance the efficacy of an ICB cocktail of anti-PD-1 (mouse monoclonal anti-PD-1 CD279, clone RMP1-14, BioXCell) and anti-CTLA-4 (mouse monoclonal anti-CTLA-4 CD152, clone 9D9, BioXCell) antibodies, mice bearing primary tumors in a neo-adjuvant setting were administered various treatments. Therapy was administered before removing the primary tumors surgically to assess mice survival against spontaneous metastases that arose on treatment. For the combinatorial treatment with bosentan and Immunotherapy studies, bosentan 1 mg/kg or equal volume of diluent (control group) was administered by intraperitoneal injection (i.p.) once a day for 14 days, starting from once the tumor volumes reached an average size of 5 mm diameter. Immunotherapy was administrated as a cocktail of 10 mg/kg anti-PD-1 (CD279, clone RMP1-14, BioXCell) and 5 mg/kg anti-CTLA-4 (CD152, clone 9D9) following dilution in the recommended InVivoPure pH 7.0 Dilution Buffer (BioXCell). […] Planar dimensions (x, y) of tumor were monitored every 2-3 days using a digital caliper and tumor volume was estimated from the volume of an ellipsoid and assuming that the third dimension, z, is equal to x y. […]
# [3] = system: 4T1 tumors; test: as above; conditions: 1 mg/kg bosentan combined with ICB cocktail (10 mg/kg anti-PD-1, 5 mg/kg anti-CTLA-4); n=8-10
# Method: as §1
# [4] = system: E0771 tumors; test: Extracellular matrix staining (Picro Sirius red collagen, HABP immunofluorescence)
# Method: Mice bearing syngeneic, orthotopic triple negative breast cancer (TNBC) were treated with a range of sub-therapeutic doses of bosentan, from 0.2 mg/kg to 10 mg/kg of body weight. Orthotopic models for murine mammary tumors were generated by implantation of 5×10^4 4T1 or E0771 cancer cells in 40 μl of serum-free medium into the third mammary fat pad of 6-8-week-old BALB/c and C57BL/6 female mice, respectively. 4T1 (ATCC® CRL-2539TH) and E0771 (94A001, CH3 BioSystems) mouse breast adenocarcinoma cell lines were purchased form ATCC and CH3 BioSystems, respectively. The cells were maintained at 37° C./5% CO2 in Roswell Park Memorial Institute medium (RPMI-1640, LM-R1637, Biosera) supplemented with 10% fetal bovine serum (FBS, FB-1001H, biosera) and 1% antibiotics (A5955, Sigma). Bosentan (bosentan Hydrate (S3051, Selleckchem) was dissolved in ddH2O containing 2% DMSO (GK2245, Glentham Life Science), 30% PEG300 (S6704, Selleckchem) and 2% Tween 80 (S6702, Selleckchem)) 1 mg/kg, 5 mg/kg, 10 mg/kg or equal volume of diluent (control group) was administered by intraperitoneal injection (i.p.) once a day for 10 days, starting from once the tumor volumes reached an average size of 100 mm^3. Tumors were excised when they reached an average size of 500 mm^3. Tissue stiffness was then measured non-invasively and longitudinally using ultrasound elastography. […]
smiles,measurement,setting,value
"COc1ccccc1Oc1c(NS(=O)(=O)c2ccc(C(C)(C)C)cc2)nc(-c2ncccn2)nc1OCCO [bosentan, 4-tert-butyl-N-[6-(2-hydroxy-ethoxy)-5-(2-methoxy-phenoxy)-2-(pyrimidin-2-yl)pyrimidin-4-yl] benzenesulfonamide]",T cell activity expression (mRNA),[1],increased
same,endothelial adhesion molecule expression (mRNA),[1],increased
same,hypoxia related gene-expression (mRNA),[1],reduced
same,tumor growth,[2],potentiated tumor growth inhibition
same,tumor growth,[3],potentiated tumor growth inhibition
same,collagen levels (Picro Sirius red staining),[4],reduction of collagen levels
